Results published in patent US4168206A, “Impregnated disk method for testing antifungal susceptibility” (Philadelphia College of Osteopathic Medicine, priority 1977, dated 1979).
≈ marks a conversion by molar mass, not a printed value.

Tests used:
Format in all cases: cell-based
Candida albicans [1] = assay: Susceptibility to combination of antifungal agents on disks (Example 2); details: Candida albicans isolate; in combination with amphotericin B
Description: (§1) The method of the present invention also may be used to test combinations of antifungal agents. In this method, more than one antifungal agent of known concentration is impregnated in each test disk.
(§2) Each disk is impregnated with a particular known concentration of at least one particular antifungal agent, except for the control disks. When the susceptibility of a fungus to combinations of antifungal agents is being tested, more than one antifungal agent is impregnated in each test disk.
(§3) The susceptibility of two other isolates to combinations of antifungal agents were tested by combining more than one antifungal agent on each test disk. A series of test disks were prepared containing various combinations of antifungal agents in various concentrations and were used in the method of the present invention. The results of this procedure are summarized in the following specific, non-limiting examples:
This is a significant reduction in amphotericin B.

Candida tropicalis = assay: Susceptibility to combination of antifungal agents on disks (Example 3); details: in combination with amphotericin B 0.05 μg/ml
Description: as §1, §2, §3
An isolate of Candida tropicalis was initially tested for amphotericin B susceptibility of 0.5 μg/ml. When a combination of amphotericin B and tetracycline were combined on the disks used in the testing procedure according to the present invention, effective inhibition of the isolate occurred using 0.05 μg/ml of amphotericin B and 0.2 μg/ml of tetracycline.

Geotrichum candidum [2] = assay: MIC by impregnated disk method, Geotrichum candidum; details: disk method, read-out: Minimum Inhibitory Concentration, Disk
Experimental: (§4) Stock solutions of the antifungal agents to be tested are preferably prepared by diluting the antifungal agents in the proper nutrient medium. It is presently preferred to prepare dilutions in 10 ml of the proper medium to give the following final concentrations when applied to the disks (all quantities in micrograms per milliliter): 0.05, 0.08, 0.09, 0.1; 0.1 increment increases to 0.9, 1.0; 0.5 increment increases to 10.0; and 12.0, 14.0, 20.0, 25.0 and 50.0. Disks have been prepared by placing 0.05 ml of the above dilutions of antifungal agent containing medium on 6.5 mm diameter disks in 0.01 or 0.02 ml increments. The impregnated disks are then allowed to dry at a temperature preferably below about 10° C. […] The disks may also be dried by a lyophilization or freeze drying process.
(§5) To perform the tests in accordance with the present inventions, disks impregnated with various concentrations of antifungal agent and nutrient medium and a control disk impregnated only with the corresponding nutrient medium are placed on the fungus to be tested which has been applied to the non-nutrient medium. The disks are the inoculated non-nutrient medium are then incubated at a suitable temperature for a sufficient time to promote growth of the fungus. Any temperature is suitable if it will promote growth of the fungus without adversely affecting the fungus or the activity of the antifungal agent or agents tested. The time of incubation can be determined by observing the extent of growth around the control disk. […] The zones of growth or inhibition around the disks were read at 6, 12, 24, 36 and 48 hours after the disks were placed on the tested fungus.
(§6) The minimum inhibitory concentration is defined as the lowest concentration of antifungal agent which inhibits visible growth. […]
(§7) Several test disks and a control disk were placed in each petri dish containing the inoculated agar. The disks and petri dishes were then incubated at 29° C. and the minimum inhibitory concentration of the various concentrations of the antifungal agents were read at 6, 12, 24, 36 and 48 hours. […]

Trichosporon sp. [3] = assay: MIC by impregnated disk method, Trichosporon sp.; details: Trichosporon sp.; disk method; read-out: Minimum Inhibitory Concentration, Disk
Experimental: as §4, §5, §6, §7

Cryptococcus neoformans [4] = assay: MIC by broth dilution method, Cryptococcus neoformans; details: Cryptococcus neoformans
Description: (§8) The preparation of the nutrient media, the antifungal agents and the fungi to be tested in the present invention are similar to those reported in S. Shadomy and A. Espinel-Ingroff, "Susceptibility Testing Of Antifungal Agents", Ch. 63, pp. 569-574 in E. H. Lennett, E. H. Spaulding, and J. P. Truant, Eds., Manual Of Clinical Microbiology, 2nd Ed., American Society for Microbiology, Washington, D.C. (1974). This publication describes the susceptibility testing of antifungal agents, namely, amphotericin B, nystatin and 5-fluoro-cytosine (5-FC), by the "broth dilution method" and the "semisolid agar dilution method". At pages 570-571, it is stated:
(§9) In 10 duplicate runs with each strain tested, the variation in minimum inhibitory concentration averaged ±0.05 μg/ml.
(§10) *Broth dilution method conducted in accordance with S. Shadomy and E.
(§11) Espinel-Ingroff, "Susceptibility Testing of Antifungal Agents", Ch. 63,
(§12) pp. 569-574 in E. H. Spaulding and J. P. Truant, Eds., Manual Of Clinical
(§13) Microbiology, 2nd Ed., American Society for Microbiology, Washington, […]

C. parapsilosis [5] = assay: MIC by impregnated disk method, Candida parapsilosis; details: Lodderomyces parapsilosis
Experimental: as §4, §5
(§14) The minimum inhibitory concentration is defined as the lowest concentration of antifungal agent which inhibits visible growth. The disks containing concentrations of antifungal agents below the minimum inhibitory concentration show circumscribed growth of the fungus around the disk. Disks containing concentrations of antifungal agent at or above the minimum inhibitory concentration show no circumscribed growth.
(§15) Clinical isolates of various fungi listed in Table 1 were obtained from different patients diagnosed as having fungal infections. The fungal inocula were prepared by using a 24-48 hour cultures grown in yeast nitrogen base containing 1% glucose and 0.15% asparagine. After centrifuging, the supernatant was removed, the sedimented cells were washed twice with sterile distilled water and a cell suspension was adjusted to 80% transmission at 520 nm using a Beckman DB-GT grating spectrophotometer.
(§16) Sterile liquified 2% purified agar was placed in petri dishes and allowed to harden. The surface of the agar was inoculated with a sterile cotton swab saturated with a suspension of an organism. The uniformly swabbed plates were then allowed to dry.
(§17) Disks were prepared using the dilutions described above for amphotericin B, nystatin and 5-fluorocytosine. 0.05 ml of the dilutions of each antifungal agent diluted with the appropriate nutrient medium were pipetted on 6.5 mm diameter disks. The disks were dried at 4° C. after each application. Control disks were also prepared.
(§18) Several test disks and a control disk were placed in each petri dish containing the inoculated agar. The disks and petri dishes were then incubated at 29° C. and the minimum inhibitory concentration of the various concentrations of the antifungal agents were read at 6, 12, 24, 36 and 48 hours.
as §9

C. parapsilosis [6] = assay: MIC by broth dilution method, Candida parapsilosis; details: Lodderomyces parapsilosis
Description: as §8, §9, §10, §11, §12, §13

Cryptococcus neoformans [7] = assay: MIC by impregnated disk method, Cryptococcus neoformans; details: Cryptococcus neoformans
Experimental: as §4, §5, §14, §15, §16, §17, §18, §9

Torulopsis glabrata [8] = assay: MIC by impregnated disk method, Torulopsis glabrata; details: Nakaseomyces glabratus; Torulopsis glabrata; disk method; read-out: Minimum Inhibitory Concentration, Disk
Experimental: as §4, §5, §6, §7

C. tropicalis [9] = assay: MIC by broth dilution method, Candida tropicalis; details: Candida tropicalis; C. tropicalis; broth dilution method; read-out: Minimum Inhibitory Concentration, Broth
Description: as §8, §9, §10, §11, §12, §13

C. tropicalis [10] = assay: MIC by impregnated disk method, Candida tropicalis; details: Candida tropicalis; C. tropicalis; disk method; read-out: Minimum Inhibitory Concentration, Disk
Experimental: as §4, §5, §6, §7

Candida albicans [11] = assay: MIC by impregnated disk method, Candida albicans; details: Candida albicans
Experimental: as §4, §5, §14, §15, §16, §17, §18, §9

Candida albicans [12] = assay: MIC by broth dilution method, Candida albicans; details: Candida albicans
Description: as §8, §9, §10, §11, §12, §13

Torulopsis glabrata [13] = assay: MIC by broth dilution method, Torulopsis glabrata; details: Nakaseomyces glabratus; Torulopsis glabrata; broth dilution method; read-out: Minimum Inhibitory Concentration, Broth
Description: as §8, §9, §10, §11, §12, §13

Geotrichum candidum [14] = assay: MIC by broth dilution method, Geotrichum candidum; details: broth dilution method, read-out: Minimum Inhibitory Concentration, Broth
Description: as §8, §9, §10, §11, §12, §13

Saccharomyces cerevisiae [15] = assay: MIC by impregnated disk method, Saccharomyces cerevisiae; details: Saccharomyces cerevisiae
Experimental: as §4, §5, §14, §15, §16, §17, §18, §9

Saccharomyces cerevisiae [16] = assay: MIC by broth dilution method, Saccharomyces cerevisiae; details: Saccharomyces cerevisiae
Description: as §8, §9, §10, §11, §12, §13

Trichosporon sp. [17] = assay: MIC by broth dilution method, Trichosporon sp.; details: Trichosporon sp.; broth dilution method; read-out: Minimum Inhibitory Concentration, Broth
Description: as §8, §9, §10, §11, §12, §13

For `CN(C)C1C(=O)C(C(N)=O)=C(O)C2(O)C(=O)C3=C(O)c4c(O)cccc4C(C)(O)C3CC12` (stereo not shown) [tetracycline], the tetracycline susceptibility (Candida albicans [1]) was 0.1 µg/mL and the “effective inhibition of the isolate, concentration of tetracycline” value (Candida tropicalis) was 0.2 µg/mL.
In the case of `Nc1nc(=O)[nH]cc1F` [5-Fluorocytosine, 5-fluorocytosine], the MIC (Geotrichum candidum [2]) was 2.5 µg/mL (≈ 19.4 µM), the MIC (Trichosporon sp. [3]) was 50 µg/mL (≈ 387 µM) and the MIC (Cryptococcus neoformans [4]; C. neoformans isolate 2, read-out: Minimum Inhibitory Concentration, Broth) was 12 µg/mL (≈ 93 µM). For the same compound, the MIC (Cryptococcus neoformans [4]; Cryptococcus neoformans isolate 1, read-out: Minimum Inhibitory Concentration, Broth) was 8.5 µg/mL (≈ 65.8 µM), the MIC (C. parapsilosis [5]; C. parapsilosis isolate 1, read-out: Minimum Inhibitory Concentration, Disk) was 0.9 µg/mL (≈ 6.97 µM) and the MIC (C. parapsilosis [5]; C. parapsilosis isolate 2, read-out: Minimum Inhibitory Concentration, Disk) was 1.5 µg/mL (≈ 11.6 µM). It also gave an MIC (C. parapsilosis [6]; C. parapsilosis isolate 1, read-out: Minimum Inhibitory Concentration, Broth) of 0.8 µg/mL (≈ 6.2 µM), an MIC (C. parapsilosis [6]; C. parapsilosis isolate 2, read-out: Minimum Inhibitory Concentration, Broth) of 2 µg/mL (≈ 15.5 µM) and an MIC (Cryptococcus neoformans [7]; C. neoformans isolate 2, read-out: Minimum Inhibitory Concentration, Disk) of 15 µg/mL (≈ 116 µM). It also gave an MIC (Cryptococcus neoformans [7]; Cryptococcus neoformans isolate 1, read-out: Minimum Inhibitory Concentration, Disk) of 10 µg/mL (≈ 77.5 µM), an MIC (Torulopsis glabrata [8]) of 0.8 µg/mL (≈ 6.2 µM) and an MIC (C. tropicalis [9]) of 6 µg/mL (≈ 46.5 µM). The MIC (C. tropicalis [10]) was 7.5 µg/mL (≈ 58.1 µM), the MIC (Candida albicans [11]; isolate 1, read-out: Minimum Inhibitory Concentration, Disk) was 8.5 µg/mL (≈ 65.8 µM) and the MIC (Candida albicans [11]; isolate 2, read-out: Minimum Inhibitory Concentration, Disk) was 0.3 µg/mL (≈ 2.32 µM). The MIC (Candida albicans [11]; isolate 3, read-out: Minimum Inhibitory Concentration, Disk) was 2 µg/mL (≈ 15.5 µM), the MIC (Candida albicans [11]; isolate 4, read-out: Minimum Inhibitory Concentration, Disk) was 6 µg/mL (≈ 46.5 µM) and the MIC (Candida albicans [11]; isolate 5, read-out: Minimum Inhibitory Concentration, Disk) was 0.8 µg/mL (≈ 6.2 µM). The MIC (Candida albicans [11]; isolate 6, read-out: Minimum Inhibitory Concentration, Disk) was 0.5 µg/mL (≈ 3.87 µM), the MIC (Candida albicans [12]; isolate 1, read-out: Minimum Inhibitory Concentration, Broth) was 6.5 µg/mL (≈ 50.4 µM) and the MIC (Candida albicans [12]; isolate 2, read-out: Minimum Inhibitory Concentration, Broth) was 0.6 µg/mL (≈ 4.65 µM). The MIC (Candida albicans [12]; isolate 3, read-out: Minimum Inhibitory Concentration, Broth) was 3 µg/mL (≈ 23.2 µM), the MIC (Candida albicans [12]; isolate 4, read-out: Minimum Inhibitory Concentration, Broth) was 3.5 µg/mL (≈ 27.1 µM) and the MIC (Candida albicans [12]; isolate 5, read-out: Minimum Inhibitory Concentration, Broth) was 0.7 µg/mL (≈ 5.42 µM). The MIC (Candida albicans [12]; isolate 6, read-out: Minimum Inhibitory Concentration, Broth) was 0.7 µg/mL (≈ 5.42 µM), the MIC (Torulopsis glabrata [13]) was 0.7 µg/mL (≈ 5.42 µM) and the MIC (Geotrichum candidum [14]) was 3 µg/mL (≈ 23.2 µM). The MIC (Saccharomyces cerevisiae [15]; S. cerevisiae isolate 2, read-out: Minimum Inhibitory Concentration, Disk) was 0.8 µg/mL (≈ 6.2 µM), the MIC (Saccharomyces cerevisiae [15]; Saccharomyces cerevisiae isolate 1, read-out: Minimum Inhibitory Concentration, Disk) was 1.5 µg/mL (≈ 11.6 µM) and the MIC (Saccharomyces cerevisiae [16]; S. cerevisiae isolate 2, read-out: Minimum Inhibitory Concentration, Broth) was 1 µg/mL (≈ 7.75 µM). For the same compound, the MIC (Saccharomyces cerevisiae [16]; Saccharomyces cerevisiae isolate 1, read-out: Minimum Inhibitory Concentration, Broth) was 2.5 µg/mL (≈ 19.4 µM) and the MIC (Trichosporon sp. [17]) was 50 µg/mL (≈ 387 µM).
